Test results published in the supplement of paper PMC5908809.

How the values were obtained:
[1] = tested on: normal primary NK cells, pool 3 (3 donors) (IL-2 2.5 ng/mL); experiment: drug sensitivity score (DSS) (DSS units); higher = more sensitive; extreme values may be limits of the assay; settings: 72 h
KAI3 (IL-2 2.5 ng/mL) [2] = experiment: as above; settings: 72 h
IMC-1 (IL-2 20 ng/mL) [3] = experiment: as above; settings: 72 h
NK-YS (IL-2 2.5 ng/mL) [4] = experiment: as above; settings: 72 h
NK-92 (IL-2 2.5 ng/mL) [5] = experiment: as above; settings: 72 h
KHYG-1 (IL-2 2.5 ng/mL) [6] = experiment: as above; settings: 72 h
SNK-6 (IL-2 2.5 ng/mL) [7] = experiment: as above; settings: 72 h
[8] = tested on: normal primary NK cells, pool 1 (3 donors), resting (IL-2 0 ng/mL); experiment: as above; settings: 72 h
NKL (IL-2 2.5 ng/mL) [9] = experiment: as above; settings: 72 h
[10] = tested on: normal primary NK cells, pool 2 (3 donors) (IL-2 2.5 ng/mL); experiment: as above; settings: 72 h
YT (IL-2 2.5 ng/mL) [11] = experiment: as above; settings: 72 h
DERL-7 (IL-2 2.5 ng/mL) [12] = experiment: as above; settings: 72 h
[13] = tested on: normal primary NK cells, pool 1 (3 donors) (IL-2 2.5 ng/mL); experiment: as above; settings: 72 h
[14] = tested on: normal primary NK cells, pool 3 (3 donors) (IL-2 2.5 ng/mL); experiment: percent inhibition of viability; higher = more inhibition; settings: 72 h
KAI3 (IL-2 2.5 ng/mL) [15] = experiment: as above; settings: 72 h
IMC-1 (IL-2 20 ng/mL) [16] = experiment: as above; settings: 72 h
NK-YS (IL-2 2.5 ng/mL) [17] = experiment: as above; settings: 72 h
NK-92 (IL-2 2.5 ng/mL) [18] = experiment: as above; settings: 72 h
KHYG-1 (IL-2 2.5 ng/mL) [19] = experiment: as above; settings: 72 h
SNK-6 (IL-2 2.5 ng/mL) [20] = experiment: as above; settings: 72 h
[21] = tested on: normal primary NK cells, pool 1 (3 donors), resting (IL-2 0 ng/mL); experiment: as above; settings: 72 h
NKL (IL-2 2.5 ng/mL) [22] = experiment: as above; settings: 72 h
[23] = tested on: normal primary NK cells, pool 2 (3 donors) (IL-2 2.5 ng/mL); experiment: as above; settings: 72 h
YT (IL-2 2.5 ng/mL) [24] = experiment: as above; settings: 72 h
DERL-7 (IL-2 2.5 ng/mL) [25] = experiment: as above; settings: 72 h
[26] = tested on: normal primary NK cells, pool 1 (3 donors) (IL-2 2.5 ng/mL); experiment: as above; settings: 72 h
[27] = tested on: normal NK cells expanded with K562-aAPC; experiment: drug sensitivity score (DSS) (DSS units); higher = more sensitive; extreme values may be limits of the assay; settings: 72 h; IL-2 2.5 ng/mL
Description: (§1)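 Drug sensitivity and resistance testing on K562-aAPC-expanded normal NK cells: 5 concentrations (10-fold steps over a 10,000-fold range), 72 h at 37 °C, viability by CellTiter-Glo normalised to DMSO and benzethonium chloride controls; DSS from the fitted curve.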

[28] = tested on: normal NK cells expanded with K562-aAPC; experiment: percent inhibition of viability; higher = more inhibition; settings: 72 h, IL-2 2.5 ng/mL
Description: as §1

CO[C@H]1C[C@@H]2CC[C@@H](C)[C@@](O)(O2)C(=O)C(=O)N2CCCC[C@H]2C(=O)O[C@H]([C@H](C)C[C@@H]2CC[C@@H](OC(=O)C(C)(CO)CO)[C@H](OC)C2)CC(=O)[C@H](C)/C=C(\C)[C@@H](O)[C@@H](OC)C(=O)[C@H](C)C[C@H](C)/C=C/C=C/C=C/1C [Temsirolimus] (max concentration tested 100 nM)
Settings | drug sensitivity score
DERL-7 (IL-2 2.5 ng/mL) [12] | 15.1
IMC-1 (IL-2 20 ng/mL) [3] | 0
KAI3 (IL-2 2.5 ng/mL) [2] | 14.2
KHYG-1 (IL-2 2.5 ng/mL) [6] | 13.4
NK-92 (IL-2 2.5 ng/mL) [5] | 7.04
NK-YS (IL-2 2.5 ng/mL) [4] | 17.4
NKL (IL-2 2.5 ng/mL) [9] | 21.6
SNK-6 (IL-2 2.5 ng/mL) [7] | 17.2
YT (IL-2 2.5 ng/mL) [11] | 14.4
[1] | 0.84
[8] | 0.07
[10] | 3.24
[13] | 0.28
[27] | 1.25

percent inhibition of viability [%]
Settings | 0.01 nM | 0.1 nM | 1 nM | 10 nM | 100 nM
DERL-7 (IL-2 2.5 ng/mL) [25] | 0.65 | 5.41 | 38.2 | 53.8 | 56.5
IMC-1 (IL-2 20 ng/mL) [16] | 1.04 | 2.24 | -25.1 | -30.5 | -23.9
KAI3 (IL-2 2.5 ng/mL) [15] | -1.9 | 13.1 | 35.1 | 48.4 | 54.7
KHYG-1 (IL-2 2.5 ng/mL) [19] | -0.71 | 3.41 | 21.7 | 58.9 | 48.8
NK-92 (IL-2 2.5 ng/mL) [18] | -7.3 | 7.2 | 12.8 | 33.5 | 36.9
NK-YS (IL-2 2.5 ng/mL) [17] | -1.82 | 16.2 | 44.5 | 54.4 | 59
NKL (IL-2 2.5 ng/mL) [22] | 5.4 | 32.6 | 52 | 59.1 | 58.7
SNK-6 (IL-2 2.5 ng/mL) [20] | 4.31 | 14 | 45.6 | 56 | 55.2
YT (IL-2 2.5 ng/mL) [24] | 0.8 | 5.67 | 35.9 | 50.6 | 55.3
[14] | -9.23 | -18.3 | 1.68 | 12.1 | 12.8
[21] | -13.5 | -0.02 | 6.4 | 10.2 | 4.95
[23] | -13.6 | -11.5 | 7.96 | 18.8 | 14.9
[26] | -5.13 | 4.99 | 6.83 | 10.7 | 11.2
[28] | 0.06 | 1.82 | 7.35 | 7.61 | 23.3

COc1cc([C@@H]2c3cc4c(cc3[C@@H](O[C@@H]3O[C@@H]5CO[C@@H](c6cccs6)O[C@H]5[C@H](O)[C@H]3O)[C@H]3COC(=O)[C@H]23)OCO4)cc(OC)c1O [Teniposide] (max concentration tested 10000 nM)
Settings | drug sensitivity score
DERL-7 (IL-2 2.5 ng/mL) [12] | 33.5
IMC-1 (IL-2 20 ng/mL) [3] | 32.6
KAI3 (IL-2 2.5 ng/mL) [2] | 29.9
KHYG-1 (IL-2 2.5 ng/mL) [6] | 30.9
NK-92 (IL-2 2.5 ng/mL) [5] | 25
NK-YS (IL-2 2.5 ng/mL) [4] | 29.3
NKL (IL-2 2.5 ng/mL) [9] | 36.2
SNK-6 (IL-2 2.5 ng/mL) [7] | 28.5
YT (IL-2 2.5 ng/mL) [11] | 22.1
[1] | 10.1
[8] | 20.6
[10] | 11
[13] | 14
[27] | 18.8

percent inhibition of viability [%]
Settings | 1 nM | 10 nM | 100 nM | 1000 nM | 10000 nM
DERL-7 (IL-2 2.5 ng/mL) [25] | 5.54 | 34.5 | 94.9 | 80.3 | 99.3
IMC-1 (IL-2 20 ng/mL) [16] | -1.21 | 18.8 | 95.9 | 99.6 | 99
KAI3 (IL-2 2.5 ng/mL) [15] | -5.63 | 32.8 | 80.1 | 75.3 | 92.2
KHYG-1 (IL-2 2.5 ng/mL) [19] | 1.47 | 13.1 | 91.5 | 102 | 94.4
NK-92 (IL-2 2.5 ng/mL) [18] | -21.1 | 0.94 | 59.8 | 99.7 | 90.3
NK-YS (IL-2 2.5 ng/mL) [17] | 4.54 | 29.4 | 82.5 | 79.9 | 75.7
NKL (IL-2 2.5 ng/mL) [22] | 0.79 | 49.3 | 98.3 | 98.7 | 89.8
SNK-6 (IL-2 2.5 ng/mL) [20] | 5.23 | 16.8 | 78.2 | 95.8 | 94.7
YT (IL-2 2.5 ng/mL) [24] | 0.75 | -4.25 | 36.1 | 95.3 | 91.5
[14] | -13.8 | -4.37 | 3.23 | 36.7 | 97
[21] | -23.6 | -9.41 | 27.9 | 90.8 | 91.2
[23] | -11.9 | -5.76 | 2.6 | 48.4 | 93.9
[26] | 2.23 | -5.23 | 11.2 | 66.3 | 96.6
[28] | -1.49 | 7.42 | 51.3 | 59.8 | 99.4
